Literature values in patent US6730319B2, “Pharmaceutical compositions having depressed melting points” (Hoffmann-La Roche Inc., priority 2001, dated 2004).

Details: in vivo

- bioavailability increase in the fed status compared to the fasted state: 28 fold
SMILES: Cc1c(C)c2c(c(C)c1OC(=O)c1cccnc1)CC[C@@](C)(CCC[C@H](C)CCC[C@H](C)CCCC(C)C)O2 [alpha-tocopherol-nicotinate]
